For 22 compounds, IC50 results are on record in US11407721B2, “CIS-morpholinone and other compounds as MDM2 inhibitors for the treatment of cancer” (AMGEN INC., priority 2013, dated 2022).

The experiment has as its target interaction between HDM2 and p53 (GST-hMDM2 (1-188) / biotinylated-p53 (1-83)) (Homo sapiens (Human), UniProt Q00987). Nature of the experiment: HTRF2 Assay (improved HTRF assay). Type of experiment: binding. The following applies: read-out: HTRF2 IC50.
[1] abbreviates: 0.2 nM GST-hMDM2 (1-188), 0.5 nM biotinylated-p53 (1-83), 100 mM KF.

Read-outs that look alike come from different tables or passages of the source.

interaction between HDM2 and p53 (GST-hMDM2 (1-188) / biotinylated-p53 (1-83)), sequence (Q00987 1-188): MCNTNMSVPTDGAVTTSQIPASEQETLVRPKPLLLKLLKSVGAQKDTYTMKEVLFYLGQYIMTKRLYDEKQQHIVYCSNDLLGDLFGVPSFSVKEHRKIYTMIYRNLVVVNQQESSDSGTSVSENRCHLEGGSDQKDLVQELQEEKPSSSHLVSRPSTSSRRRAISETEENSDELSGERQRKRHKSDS

As for `CCC[C@H](C(=O)O)N1C(=O)[C@H](Cc2ccccc2S(C)(=O)=O)O[C@@H](c2ccc(Cl)cc2)[C@H]1c1ccc(Cl)cc1` [Example 51, (R)-2-((2S,3R,6S)-2,3-Bis(4-chlorophenyl)-6-(2-(methylsulfonyl)benzyl)-5-oxomorpholino)pentanoic acid], the half-inhibitory concentration (IC50) under setting [1] was found to be 676 nM. For `O=C1CO[C@@H](c2ccc(Cl)cc2)[C@@H](c2ccc(Cl)cc2)N1c1cnccn1` [(5R,6S)-5,6-bis(4-chlorophenyl)-4-(2-pyrazinyl)-3-morpholinone], under setting [1], the IC50 came to 9300 nM. Consider `CCC[C@H](C(=O)O)N1C(=O)[C@H](CCCn2ccnc2)O[C@@H](c2ccc(Cl)cc2)[C@H]1c1ccc(Cl)cc1` [(2R)-2-((2S,3R,6S)-2,3-bis(4-chlorophenyl)-6-(3-(1H-imidazol-1-yl)propyl)-5-oxo-4-morpholinyl)pentanoic acid], for which the concentration for half-maximal inhibition (IC50) under setting [1] was found to be 973 nM. With `CCC[C@H](C(=O)NCCCC(=O)OC)N1C(=O)[C@H](Cc2ccc(S(C)(=O)=O)cc2)O[C@@H](c2ccc(Cl)cc2)[C@H]1c1ccc(Cl)cc1` [methyl 4-(((2R)-2-((2S,3R,6S)-2,3-bis(4-chlorophenyl)-6-(4-(methylsulfonyl)benzyl)-5-oxo-4-morpholinyl)pentanoyl)amino)butanoate], the IC50 under setting [1] is 749 nM. Take `CS(=O)(=O)c1ccc(C[C@@H]2O[C@@H](c3ccc(Cl)cc3)[C@@H](c3ccc(Cl)cc3)N(c3cccnc3)C2=O)cc1` (racemic) [Example 62, (2S,5R,6S)-5,6-Bis(4-chlorophenyl)-2-(4-(methylsulfonyl)benzyl)-4-(pyridin-3-yl)morpholin-3-one and (2R,5S,6R)-5,6-bis(4-chlorophenyl)-2-(4-(methylsulfonyl)benzyl)-4-(pyridin-3-yl)morpholin-3-one]: the IC50 came to 15800 nM. Take `CCC[C@H](C(=O)O)N1C(=O)[C@H](Cc2cccc(F)c2)O[C@@H](c2ccc(Cl)cc2)[C@H]1c1ccc(Cl)cc1` [Example 48, (R)-2-((2S,3R,6S)-2,3-Bis(4-chlorophenyl)-6-(3-fluorobenzyl)-5-oxomorpholino)pentanoic acid]: the 50% inhibitory concentration (IC50) under setting [1] came to 420 nM. The same measure, in the same setting: the same measure for `CCC[C@H](C(=O)O)N1C(=O)[C@H](CCN2CCN(C)CC2)O[C@@H](c2ccc(Cl)cc2)[C@H]1c1ccc(Cl)cc1` [(2R)-2-((2S,3R,6S)-2,3-bis(4-chlorophenyl)-6-(2-(4-methyl-1-piperazinyl)ethyl)-5-oxo-4-morpholinyl)pentanoic acid]: 790 nM; for `O=C1CO[C@@H](c2ccc(Cl)cc2)[C@@H](c2ccc(Cl)cc2)N1c1ccnc(Cl)c1` [(5R,6S)-5,6-bis(4-chlorophenyl)-4-(2-chloro-4-pyridinyl)-3-morpholinone]: 7180 nM. As to `CCC[C@H](C(=O)O)N1C(=O)[C@H](Cc2ccc(S(C)(=O)=O)c(F)c2)O[C@@H](c2ccc(Cl)cc2)[C@H]1c1ccc(Cl)cc1` [Example 53, (R)-2-((2S,3R,6S)-2,3-Bis(4-chlorophenyl)-6-(3-fluoro-4-(methylsulfonyl)benzyl)-5-oxomorpholino)pentanoic acid], the IC50 under setting [1] came to 276 nM. Consider `CCC[C@H](C(=O)OCC)N1C(=O)[C@H](CCCN2CCOCC2)O[C@@H](c2ccc(Cl)cc2)[C@H]1c1ccc(Cl)cc1` [ethyl (2R)-2-((2S,3R,6S)-2,3-bis(4-chlorophenyl)-6-(3-(4-morpholinyl)propyl)-5-oxo-4-morpholinyl)pentanoate], for which the half-maximal inhibitory concentration (IC50) under setting [1] came out at 2790 nM.

For the compound `CCC[C@H](C(=O)O)N1C(=O)[C@H](Cc2cccc(OC)c2)O[C@@H](c2ccc(Cl)cc2)[C@H]1c1ccc(Cl)cc1` [(2R)-2-((2S,3R,6S)-2,3-bis(4-chlorophenyl)-6-(3-methoxybenzyl)-5-oxo-4-morpholinyl)pentanoic acid], the IC50 under setting [1] worked out at 1110 nM.

Take `CCC[C@H](C(=O)NCCCC(=O)O)N1C(=O)[C@H](Cc2ccc(S(C)(=O)=O)cc2)O[C@@H](c2ccc(Cl)cc2)[C@H]1c1ccc(Cl)cc1` [4-(((2R)-2-((2S,3R,6S)-2,3-bis(4-chlorophenyl)-6-(4-(methylsulfonyl)benzyl)-5-oxo-4-morpholinyl)pentanoyl)amino)butanoic acid]: under setting [1], the IC50 was determined as 2440 nM. As for `CCC[C@H](C(=O)O)N1C(=O)[C@H](Cc2ccccc2C#N)O[C@@H](c2ccc(Cl)cc2)[C@H]1c1ccc(Cl)cc1` [Example 46, (R)-2-((2S,3R,6S)-2,3-Bis(4-chlorophenyl)-6-(2-cyanobenzyl)-5-oxomorpholino)pentanoic acid], the IC50 under setting [1] was determined as 259 nM. As for `CCC[C@H](C(=O)O)N1C(=O)[C@H](Cc2cccc(S(C)(=O)=O)c2)O[C@@H](c2ccc(Cl)cc2)[C@H]1c1ccc(Cl)cc1` [Example 50, (R)-2-((2S,3R,6S)-2,3-Bis(4-chlorophenyl)-6-(3-(methylsulfonyl)benzyl)-5-oxomorpholino)pentanoic acid], the concentration for half-maximal inhibition (IC50) under setting [1] is 568 nM.

For the compound `CCC[C@H](C(=O)O)N1C(=O)[C@H](CCCO)O[C@@H](c2ccc(Cl)cc2)[C@H]1c1ccc(Cl)cc1` [(2R)-2-((2S,3R,6S)-2,3-bis(4-chlorophenyl)-6-(3-hydroxypropyl)-5-oxo-4-morpholinyl)pentanoic acid], the IC50 under setting [1] was found to be 3010 nM. With `O=C1CO[C@@H](c2ccc(Cl)cc2)[C@@H](c2ccc(Cl)cc2)N1c1cc(Cl)nc(Cl)c1` [(5R,6S)-5,6-bis(4-chlorophenyl)-4-(2,6-dichloro-4-pyridinyl)-3-morpholinone], the IC50 under setting [1] is 63000 nM.

As for `CCC[C@H](C(=O)O)N1C(=O)[C@H](Cc2ccc(F)cc2S(C)(=O)=O)O[C@@H](c2ccc(Cl)cc2)[C@H]1c1ccc(Cl)cc1` [Example 52, (R)-2-((2S,3R,6S)-2,3-Bis(4-chlorophenyl)-6-(4-fluoro-2-(methylsulfonyl)benzyl)-5-oxomorpholino)pentanoic acid], the half-maximal inhibitory concentration (IC50) under setting [1] turned out to be 279 nM. As to `CCC[C@H](C(=O)O)N1C(=O)[C@H](CCN2CCCCC2)O[C@@H](c2ccc(Cl)cc2)[C@H]1c1ccc(Cl)cc1` [(2R)-2-((2S,3R,6S)-2,3-bis(4-chlorophenyl)-5-oxo-6-(2-(1-piperidinyl)ethyl)-4-morpholinyl)pentanoic acid], under setting [1], the IC50 worked out at 1730 nM. For the compound `CCC[C@H](CCC(=O)O)N1C(=O)CO[C@H](c2ccc(Cl)cc2)[C@@H]1c1ccc(Cl)cc1` [(4R)-4-((2R,3S)-2,3-bis(4-chlorophenyl)-5-oxo-4-morpholinyl)heptanoic acid], the half-maximal inhibitory concentration (IC50) under setting [1] is 4140 nM. Turning to `CCC[C@H](C(=O)O)N1C(=O)[C@H](Cc2cccc(C#N)c2)O[C@@H](c2ccc(Cl)cc2)[C@H]1c1ccc(Cl)cc1` [Example 49, (R)-2-((2S,3R,6S)-2,3-Bis(4-chlorophenyl)-6-(3-cyanobenzyl)-5-oxomorpholino)pentanoic acid], the half-maximal inhibitory concentration (IC50) under setting [1] came to 561 nM. Regarding `CCC[C@H](C(=O)O)N1C(=O)[C@H](Cc2ccccc2F)O[C@@H](c2ccc(Cl)cc2)[C@H]1c1ccc(Cl)cc1` [Example 47, (R)-2-((2S,3R,6S)-2,3-Bis(4-chlorophenyl)-6-(2-fluorobenzyl)-5-oxomorpholino)pentanoic acid], the IC50 under setting [1] is 400 nM. Consider `CCC[C@H](CCC(=O)O)N1C(=O)[C@H](Cc2ccc(F)cc2)O[C@@H](c2ccc(Cl)cc2)[C@H]1c1ccc(Cl)cc1` (mixture of isomers) [Example 31, (R)-4-((2S,3R,6S)-2,3-Bis(4-chlorophenyl)-6-(4-fluorobenzyl)-5-oxomorpholino)heptanoic acid and (S)-4-((2R,3S,6R)-2,3-bis(4-chlorophenyl)-6-(4-fluorobenzyl)-5-oxomorpholino)heptanoic acid], for which the IC50 amounted to 1330 nM.

For orientation: IC50 means the point on the concentration scale where inhibition reaches its midpoint.
